Holding throughout (format): functional
Experiment [1] relates to Rattus norvegicus. The experiment is described as follows: % inhibition against anaphylactic response in rat at dose 10 mg/kg administered orally after 60 min. The note with it: 1 h, route oral.
Experiment [2] concerns Rattus norvegicus. The experiment is described as follows: % inhibition against anaphylactic response in rat at dose 50 mg/kg administered orally after 120 min. The note with it: 2 h, route oral.
Experiment [3] relates to Rattus norvegicus. Put plainly: % inhibition against anaphylactic response in rat at dose 50 mg/kg administered orally after 60 min. The note with it: 1 h, route oral.

For `O=C(O)c1cc(=O)c2c(OCC(O)COc3cccc4oc(C(=O)O)cc(=O)c34)cccc2o1` [CROMOLYN SODIUM], in experiment [1], the inhibition in vivo at 10 mg/kg is 100%. Take `COc1cc2c(cc1OC)C(COCCN1CCN(c3ccc(F)cc3)CC1)OCCC2` (stereo unspecified): the inhibition in vivo at 50 mg/kg in experiment [2] is 0%; in experiment [3] it was 52%.

With `COc1cc2c(cc1OC)C(COCCN1CCN(C)CC1)OCCC2` (stereo unspecified), the inhibition in vivo at 50 mg/kg in experiment [2] and in experiment [3] was 0% each time. Regarding `COc1cc2c(cc1OC)C(COCCNCCO)OCCC2` (stereo unspecified), the inhibition in vivo at 50 mg/kg in experiment [2] and in experiment [3] was 0% each time.

As for `COc1cc2c(cc1OC)C(COCCN1CCN(c3ccccc3OC)CC1)OCCC2` (stereo unspecified), the inhibition in vivo at 50 mg/kg stood at 20% in experiment [2] and 100% in experiment [3]. For `COc1cc2c(cc1OC)C(COCCN1CCN(c3ccccn3)CC1)OCCC2` (stereo unspecified) the same measures were 35% and 94%.

As usually defined, the inhibition in vivo is the percentage by which the read-out fell short of the control. Low values mean a weak effect, high ones a strong effect.

The values above are taken from ChEMBL document CHEMBL1121512, “1-[Ethoxyamino)methyl]-1,3,4,5-tetrahydro-7,8-dimethoxy-2-benzoxepins: a new class of antianaphylactic agents” (1980).
